# From article PMC6693643 (ACS chemical biology, 2017)
# Tests used:
# MtuATP-PRT [1] = biological target: T1, MtuATP-PRT (Mycobacterium tuberculosis, UniProt P9WMN1)
# MtuATP-PRT [2] = biological target: T1, MtuATP-PRT; experiment: competitive kinetic isotope effects, scintillation counting; type: biochemical; settings: reverse reaction; co-substrate PRATP; alternative to pyrophosphate
# T1 sequence (P9WMN1 whole entry): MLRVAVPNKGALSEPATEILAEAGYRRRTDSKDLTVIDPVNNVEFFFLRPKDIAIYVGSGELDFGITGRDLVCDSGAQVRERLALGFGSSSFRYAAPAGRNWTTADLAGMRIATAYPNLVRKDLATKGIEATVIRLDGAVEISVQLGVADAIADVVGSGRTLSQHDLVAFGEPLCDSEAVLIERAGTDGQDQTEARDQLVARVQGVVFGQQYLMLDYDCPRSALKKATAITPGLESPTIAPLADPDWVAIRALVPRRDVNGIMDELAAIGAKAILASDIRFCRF
Compound,X-ray crystal structure (co-crystallisation) (MtuATP-PRT [1]),"competitive kinetic isotope effects, scintillation counting (MtuATP-PRT [2])"
Nc1ncnc2c1ncn2[C@@H]1O[C@H](COP(=O)(O)OP(=O)(O)OP(=O)(O)O)[C@@H](O)[C@H]1O [ATP],a structure with ATP bound to MtuATP-PRT (PDB: 5U99) was obtained,–
O=C(O)CP(=O)(O)O [phosphonoacetic acid],–,the ATP-PRT catalyzed reaction was studied using phosphonoacetic acid (PA) as an alternative
